According to patent publication US20130303605A1, “EXTERNAL COMPOSITION FOR SKIN CONTAINING MANASSANTIN B AS ACTIVE INGREDIENT AND THE USE THEREOF FOR SKIN WHITENING” (Amorepacific Corporation, priority 2006, published 2013):

Experiments:
[1] = test system: acyl CoA cholesterol acyltransferase; conditions: Korean Patent Application No. 10-2003-0080397; cited from earlier work
[2] = test system: melanophilin and myosin 5a; assay: Inhibition of binding between melanophilin and myosin 5a (plate binding, chemiluminescence); conditions: his-GFP-mlphCT on nickel-coated plate, Flag-MyosinVa GT, chemiluminescence (FIG. 2)
Text: Proteins required in the test were produced in large amounts using a suitable system (E. coli) or baculovirus. Herein, the designed proteins essentially included domains known to be required for protein interaction and contained GST, His tag or flag tag such that the produced proteins could be easily purified and isolated. Each of a histidine tagged-GFP-melanophilin recombinant protein and a Flag-MyosinVa recombinant protein, which were to be used as bait proteins, were expressed in a baculovirus system, cells containing the proteins were disrupted, and then extracts were prepared. Flag-MyosinVa GT was prepared into an extract with PBS TG buffer solution, and then purified by flag-affinity chromatography.
The his-GFP-mlphCT protein prepared in the step 1 was bound to a nickel-coated plate through reaction. To the plate, binding partner Flag-MyosinVa GT was bound, and then an M2 antibody recognizing the flag was bound. The plate was subjected to color development reaction by chemiluminescence to measure the degree of binding between the proteins.

melan-a cells = assay: Inhibition of melanosome transfer at cell level (optical microscope observation); format: cell-based, mouse; conditions: various concentrations, after 4 days, optical microscope (FIG. 1)
Protocol: Melan-a Cells, Immortalized Mouse Melanocytes, Were cultured to a confluency of 90% in 10% fetal bovine serum-containing RPMI 1640 medium in a 10% CO2 incubator, while the medium was replaced with fresh medium at 3-day intervals.
The melan-a cells cultured in the step 1 were separated using 0.25% trypsin-EDTA and spread on a 6-well plate at a density of 3×10^5 cells/well. Then, the cells were left to stand for 24 hours.

[3] = test system: melan-a cells and SP-1 cells; assay: Inhibition of melanin synthesis in coculture of melanocytes and keratinocytes; format: cell-based, mouse
Protocol: Melanocytes were cultured in the same manner as in the step 1 of Test Example 1. Mouse keratinocytes SP-1 cells were cultured to a confluency of […] in 8% fetal bovine serum-containing s-MEM medium in a 10% CO2 incubator, while the medium was replaced with fresh medium at 3-days intervals.
The melan-a cells and SP-1 cells cultured in the step were separated with 0.25% Trypsin-EDTA and spread together on a 12-well plate at a ratio of 1:10 at cell densities of 1×10^4 cells/well for melan-a and 1×10^5 cells/well for SP-1. Then, the cells were left to stand for 24 hours. The cells were treated with manassantin B at various concentrations, and after 5 days, the cells were collected with 1N NaOH. The collected cells were measured for absorbance at 405 nm and measured for protein concentration using the Lowry method.

tyrosinase = target: T1, tyrosinase (Mus musculus, UniProt P11344); assay: Tyrosinase activity inhibition in melanocyte lysate (L-DOPA, absorbance 490 nm); format: biochemical; conditions: melan-a cell lysate, 1 hour with various concentrations, absorbance at 490 nm (FIG. 3)
T1 construct: disrupted with 0.1M phosphate buffer (containing 1% triton x-100); endogenous in cells; host or cells: cultured melanocytes (melan-a), cell lysate supernatant
T1 sequence (P11344 19-533): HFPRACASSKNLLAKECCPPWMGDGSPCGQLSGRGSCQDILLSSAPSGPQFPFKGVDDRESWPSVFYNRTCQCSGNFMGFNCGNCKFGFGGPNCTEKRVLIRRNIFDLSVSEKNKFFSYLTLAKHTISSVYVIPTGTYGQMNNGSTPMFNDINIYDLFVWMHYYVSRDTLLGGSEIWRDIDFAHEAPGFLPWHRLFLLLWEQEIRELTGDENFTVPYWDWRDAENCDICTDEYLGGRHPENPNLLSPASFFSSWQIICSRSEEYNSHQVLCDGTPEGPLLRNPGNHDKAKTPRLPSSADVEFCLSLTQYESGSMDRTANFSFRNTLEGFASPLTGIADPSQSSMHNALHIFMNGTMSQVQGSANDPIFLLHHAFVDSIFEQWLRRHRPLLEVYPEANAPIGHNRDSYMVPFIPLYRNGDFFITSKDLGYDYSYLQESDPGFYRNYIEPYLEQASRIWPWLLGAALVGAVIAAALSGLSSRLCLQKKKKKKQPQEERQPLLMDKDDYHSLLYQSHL
Protocol: Melanocytes were cultured in the same manner as in the step 1 of Test Example 1.
The cells cultured in the step 1 were washed once with cold PBS, and then disrupted with 0.1M phosphate buffer (containing 1% triton x-100). Then, the cells were centrifuged at 1400 rpm for 20 minutes, and the cell supernatant was isolated. 40 μg of the protein thus prepared was mixed with various concentrations of manassantin B and allowed to react for 1 hour. The reaction material was treated with 2 mg/ml of L-DOPA solution and left to stand 37° C.

- degree of binding between melanophilin and myosin 5a [2]: inhibited the binding
- inhibition of tyrosinase activity (tyrosinase): did not directly inhibit
SMILES: COc1ccc([C@@H](O)[C@@H](C)Oc2ccc([C@H]3O[C@H](c4ccc(O[C@H](C)[C@H](O)c5ccc6c(c5)OCO6)c(OC)c4)[C@H](C)[C@H]3C)cc2OC)cc1OC [manassantin B]
- inhibition of activity of acyl CoA cholesterol acyltransferase [1]: inhibit the activity of acyl CoA cholesterol acyltransferase
- configuration of the cells / distribution (transfer) of melanosomes (melan-a cells): melanosomes were gathered together around the nuclei
- inhibition at 0.02 ppm ([3]; Mus musculus, 120 h, coculture melan-a:SP-1 1:10, 5 days, manassantin B concentration of 0.02 ppm): ~50%
- inhibition of melanin synthesis ([3]; coculture melan-a:SP-1 1:10, various concentrations, 5 days (FIG. 4)): inhibited melanin synthesis in a concentration-dependent manner
